Reference: ChEMBL document CHEMBL1201862, “PubChem BioAssay data set” (2004)
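How tested: cells in 96-well plates exposed to compound for 48 hours at five concentrations. GI50 marks 50% less growth.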 Activity calls are given as the source filed them. Rule as the data show it: active = GI50 up to about 1.1 µM and inactive = higher.

How the values were obtained:
Experiment in all cases: growth of human tumour cells (NCI), 48 h
[1] = test system: DU-145
[2] = test system: MDA-MB-435
[3] = test system: Hs-578T
[4] = test system: MDA-MB-231
[5] = test system: PC-3

O=C1CC(c2ccsc2)n2cccc21 (stereo unspecified)
GI50 [1]: > 100 µM (inactive) | GI50 [2]: > 100 µM (inactive) | GI50 [3]: > 100 µM (inactive) | GI50 [4]: > 100 µM (inactive) | GI50 [5]: > 100 µM (inactive)

c1ccc2cc(-c3cc(-c4cc(-c5ccc6ccccc6c5)on4)no3)ccc2c1
GI50 [1]: > 100 µM (inactive) | GI50 [2]: > 100 µM (inactive) | GI50 [3]: 53.6 µM (inactive) | GI50 [4]: > 100 µM (inactive) | GI50 [5]: > 100 µM (inactive)

CC(=O)OCC1OC(O[C@@H]2C[C@H]3C(C)(C)[C@@H](OC(C)=O)CC[C@]3(C)[C@H]3CC[C@]45C[C@]4(CC[C@H]5[C@@H](C)C[C@@H](O)[C@H](O)C(C)(C)F)[C@@]32C)C(O)C(O)C1O (stereo partly specified)
GI50 [1]: > 100 µM (inactive) | GI50 [2]: 8.04 µM (inactive) | GI50 [3]: 1.84 µM (inactive) | GI50 [4]: 25.8 µM (inactive) | GI50 [5]: 10.6 µM (inactive)

Cc1cccc(C)c1NC(=O)/C(Cc1nc2ccc([N+](=O)[O-])cc2nc1O)=N\NC(N)=O
GI50 [1]: > 100 µM (inactive) | GI50 [2]: 98.2 µM (inactive) | GI50 [3]: > 100 µM (inactive) | GI50 [4]: > 100 µM (inactive) | GI50 [5]: 66.5 µM (inactive)

O=C1CCCN1C(=O)CS(=O)(=O)c1ccccc1
GI50 [1]: > 100 µM (inactive) | GI50 [2]: > 100 µM (inactive) | GI50 [3]: > 100 µM (inactive) | GI50 [4]: > 100 µM (inactive) | GI50 [5]: > 100 µM (inactive)

CSc1nn(C)cc2ncnc1-2
GI50 [1]: > 100 µM (inactive) | GI50 [2]: > 100 µM (inactive) | GI50 [3]: > 100 µM (inactive) | GI50 [4]: > 100 µM (inactive) | GI50 [5]: > 100 µM (inactive)

N#CC1=C(N)OC(c2cccc([N+](=O)[O-])c2)C1(C#N)C#N (stereo unspecified)
GI50 [1]: 17.3 µM (inactive) | GI50 [2]: 23.3 µM (inactive) | GI50 [3]: 84.3 µM (inactive) | GI50 [4]: > 10 µM (inactive) | GI50 [5]: 23.7 µM (inactive)

CCN1CCC(O)(c2ccc([N+](=O)[O-])cc2)C(C(=O)c2ccc([N+](=O)[O-])cc2)C1 (stereo unspecified)
GI50 [1]: 17.7 µM (inactive) | GI50 [2]: 20.5 µM (inactive) | GI50 [3]: 23.2 µM (inactive) | GI50 [4]: 25.8 µM (inactive) | GI50 [5]: 26.6 µM (inactive)

COc1c(Cl)nc2ccccc2c1N=[N+]=[N-]
GI50 [1]: > 100 µM (inactive) | GI50 [2]: > 100 µM (inactive) | GI50 [3]: 28.3 µM (inactive) | GI50 [4]: 77.1 µM (inactive) | GI50 [5]: 46 µM (inactive)

O=C(/C=C/NC(=O)OCc1ccccc1)OCc1ccccc1
GI50 [1]: > 100 µM (inactive) | GI50 [2]: > 100 µM (inactive) | GI50 [3]: > 100 µM (inactive) | GI50 [4]: 28.1 µM (inactive) | GI50 [5]: > 100 µM (inactive)

COc1ccc(C(=O)N2CCc3c([nH]c4ccccc34)C2C(=O)O)o1 (stereo unspecified)
GI50 [1]: > 10 µM (inactive) | GI50 [2]: > 10 µM (inactive) | GI50 [3]: > 10 µM (inactive) | GI50 [4]: > 10 µM (inactive) | GI50 [5]: > 10 µM (inactive)

CC(C)[Si](OC1=C(C(=O)N(C)c2cccc(Cl)c2)CCCC1)(C(C)C)C(C)C
GI50 [1]: 11.7 µM (inactive) | GI50 [2]: 15.5 µM (inactive) | GI50 [3]: 12.5 µM (inactive) | GI50 [4]: 16 µM (inactive) | GI50 [5]: 8.61 µM (inactive)

NC(=O)CC(N)C(=O)NC(Cc1ccccc1)C(=O)NC(Cc1ccccc1)NC(=O)C(Cc1c[nH]c2ccccc12)C(=O)O (stereo unspecified)
GI50 [1]: > 100 µM (inactive) | GI50 [2]: > 100 µM (inactive) | GI50 [3]: > 100 µM (inactive) | GI50 [4]: > 100 µM (inactive) | GI50 [5]: > 100 µM (inactive)

Cc1cn(C2CC(O)C(COC(=O)NCCC(F)(F)C(F)(F)C(F)(F)C(F)(F)F)O2)c(=O)[nH]c1=O (stereo unspecified)
GI50 [1]: > 100 µM (inactive) | GI50 [2]: 75.2 µM (inactive) | GI50 [3]: 80.5 µM (inactive) | GI50 [4]: > 100 µM (inactive) | GI50 [5]: > 100 µM (inactive)

Cc1nccn1S(=O)(=O)c1ccc(Cl)cc1
GI50 [1]: 81.8 µM (inactive) | GI50 [2]: 22.7 µM (inactive) | GI50 [3]: 44.9 µM (inactive) | GI50 [4]: 31.9 µM (inactive) | GI50 [5]: 99.8 µM (inactive)

Cc1noc(/N=C2\C=C(O)C(=O)c3ccccc32)c1C
GI50 [1]: 11.4 µM (inactive) | GI50 [2]: 0.126 µM (active) | GI50 [3]: 2.24 µM (inactive) | GI50 [4]: 11.6 µM (inactive) | GI50 [5]: 16.4 µM (inactive)

COc1cc2nc(-c3cccs3)[nH]c(=O)c2cc1OC
GI50 [1]: > 100 µM (inactive) | GI50 [2]: > 100 µM (inactive) | GI50 [3]: > 100 µM (inactive) | GI50 [4]: 23.2 µM (inactive) | GI50 [5]: > 100 µM (inactive)

COc1ccc(-c2c(C#N)c(-c3ccc(C)cc3)n(NS(=O)(=O)c3ccc(C)cc3)c(=O)c2C#N)cc1
GI50 [2]: 65.9 µM (inactive) | GI50 [3]: 25.1 µM (inactive) | GI50 [4]: > 100 µM (inactive) | GI50 [5]: 36.6 µM (inactive)

CCOc1cc2c(cc1O)/C(=N\N)C[C@@H]1[C@@H]2CC[C@]2(C)[C@@H](O)CC[C@@H]12
GI50 [1]: 8.73 µM (inactive) | GI50 [2]: 0.281 µM (active) | GI50 [3]: 3.06 µM (inactive) | GI50 [4]: 5.62 µM (inactive) | GI50 [5]: 6.34 µM (inactive)

Brc1ccc2c(-c3csc(-c4c[nH]c5cc(Br)ccc45)n3)c[nH]c2c1
GI50 [1]: 19.5 µM (inactive) | GI50 [2]: 5.27 µM (inactive) | GI50 [3]: 23 µM (inactive) | GI50 [4]: 21 µM (inactive) | GI50 [5]: 23.7 µM (inactive)

COc1ccc(/C=N/NC(=O)c2ccccc2Nc2ccccc2C(=O)N/N=C/c2ccc(OC)cc2)cc1
GI50 [1]: > 100 µM (inactive) | GI50 [2]: > 100 µM (inactive) | GI50 [4]: 65.6 µM (inactive) | GI50 [5]: > 100 µM (inactive)

CSC(=S)N/N=C(\C)c1cccc(C)n1
GI50 [1]: 0.845 µM (active) | GI50 [2]: 1.35 µM (inactive) | GI50 [3]: 6.14 µM (inactive) | GI50 [4]: 1.85 µM (inactive) | GI50 [5]: 0.265 µM (active)

C=C(C)CCC1CC=[N+]([O-])OC1C(C)(C)C (stereo unspecified)
GI50 [1]: 37.4 µM (inactive) | GI50 [2]: 16.1 µM (inactive) | GI50 [3]: 36.6 µM (inactive) | GI50 [4]: 26.8 µM (inactive)

O=C1Nc2c(Cl)cccc2/C1=N/Nc1ccccc1[N+](=O)[O-]
GI50 [1]: 16.4 µM (inactive) | GI50 [2]: 28.2 µM (inactive) | GI50 [3]: 7.87 µM (inactive) | GI50 [4]: 4.97 µM (inactive) | GI50 [5]: 31.9 µM (inactive)

COc1cc([N+](=O)[O-])ccc1NC(=O)C(F)(F)F
GI50 [1]: > 100 µM (inactive) | GI50 [2]: > 100 µM (inactive) | GI50 [3]: > 100 µM (inactive) | GI50 [4]: > 100 µM (inactive) | GI50 [5]: > 100 µM (inactive)

CCCCSCc1nc2nc(Cl)c(Cl)nc2[nH]1
GI50 [1]: 32.5 µM (inactive) | GI50 [2]: 33.5 µM (inactive) | GI50 [3]: 35.6 µM (inactive) | GI50 [4]: 24.6 µM (inactive) | GI50 [5]: 31.6 µM (inactive)

NS(=O)(=O)c1ccc(NC2(C(=O)O)CCCC2)cc1
GI50 [1]: > 100 µM (inactive) | GI50 [2]: > 100 µM (inactive) | GI50 [3]: > 100 µM (inactive) | GI50 [4]: > 100 µM (inactive) | GI50 [5]: > 100 µM (inactive)

Nc1ccc(S(=O)(=O)c2ccc(NC(=O)c3cccnc3)cc2)cc1
GI50 [1]: > 100 µM (inactive) | GI50 [2]: > 100 µM (inactive) | GI50 [3]: 80.9 µM (inactive) | GI50 [4]: > 100 µM (inactive) | GI50 [5]: 75 µM (inactive)

CCCC(=O)Oc1cc(OC(=O)CCC)c2c(C)cc(=O)oc2c1
GI50 [1]: > 100 µM (inactive) | GI50 [2]: 58.6 µM (inactive) | GI50 [3]: 48.4 µM (inactive) | GI50 [4]: > 100 µM (inactive) | GI50 [5]: 76.2 µM (inactive)

COc1cc(C=O)ccc1Oc1nnnn1-c1ccccc1
GI50 [1]: 32.1 µM (inactive) | GI50 [2]: 36.4 µM (inactive) | GI50 [3]: 48.6 µM (inactive) | GI50 [4]: > 100 µM (inactive) | GI50 [5]: 82.4 µM (inactive)

COC(=O)CP1(=O)OC2C(C3CCC2(C)C3(C)C)N1c1cc(C(F)(F)F)cc(C(F)(F)F)c1 (stereo unspecified)
GI50 [1]: 31.3 µM (inactive) | GI50 [2]: 22.1 µM (inactive) | GI50 [4]: 20.6 µM (inactive) | GI50 [5]: 19.9 µM (inactive)

N#Cc1cnn2ccn(C3OC(COC(=O)c4ccccc4)C(OC(=O)c4ccccc4)C3OC(=O)c3ccccc3)c12 (stereo unspecified)
GI50 [1]: > 21.5 µM (inactive) | GI50 [2]: > 21.5 µM (inactive) | GI50 [3]: 13.2 µM (inactive) | GI50 [4]: > 21.5 µM (inactive) | GI50 [5]: 5.56 µM (inactive)
